Experiment: Hematology assays in cynomolgus monkeys (Example 45)
Assay type: in vivo
Experimental: Groups, each consisting of two male and three female monkeys, were injected subcutaneously with ISIS 416838, ISIS 416850, ISIS 416858, ISIS 416864, or ISIS 417002 in escalating doses. Antisense oligonucleotide was administered to the monkeys at 5 mg/kg three times per a week for week 1; 5 mg/kg twice per week for weeks 2 and 3; 10 mg/kg three times per week for week 4; 10 mg/kg twice per week for weeks 5 and 6; 25 mg/kg three times per week for week 7; and 25 mg/kg twice per week for weeks 8, 9, 10, 11, and 12. One control group, consisting of two male and three female monkeys, was injected subcutaneously with PBS according to the same dosing regimen. An additional experimental group, consisting of two male and three female monkeys, was injected subcutaneously with ISIS 416850 in a chronic, lower dose regimen. Antisense oligonucleotide was administered to the monkeys at 5 mg/kg three times per week for week 1; 5 mg/kg twice per week for week 2 and 3; 10 mg/kg three times per week for week 4; and 10 mg/kg twice per week for weeks 5 to 12. Body weights were measured weekly. Blood samples were collected 14 days and 5 days before the start of treatment and subsequently once per week for Factor 11 protein activity analysis in plasma, fibrinogen measurement, PT and aPTT measurements, bleeding times, and measurement of various hematologic factors. On day 85, the monkeys were euthanized by exsanguination while under deep anesthesia, and organs harvested for further analysis.
The ISIS oligonucleotide, ISIS 416850, given with the chronic dose regimen is distinguished from the other oligonucleotides with an asterisk (*).

[1] = day 8, chronic dose regimen (*)
[2] = day 15, chronic dose regimen (*)
[3] = day 15, escalating dose regimen
[4] = day 22, chronic dose regimen (*)
[5] = day 22, escalating dose regimen
[6] = day 29, chronic dose regimen (*)
[7] = day 29, escalating dose regimen
[8] = day 36, chronic dose regimen (*)
[9] = day 36, escalating dose regimen
[10] = day 43, chronic dose regimen (*)
[11] = day 43, escalating dose regimen
[12] = day 50, chronic dose regimen (*)
[13] = day 50, escalating dose regimen
[14] = day 57, escalating dose regimen
[15] = day 64, escalating dose regimen
[16] = day 71, escalating dose regimen
[17] = day 78, escalating dose regimen
[18] = day 85, escalating dose regimen
[19] = day −5, chronic dose regimen (*)
[20] = day −5, escalating dose regimen
[21] = day −14, chronic dose regimen (*)
[22] = day −14, escalating dose regimen

## ISIS 416850: MOE gapmer, nucleobases 1275 to 1318 of SEQ ID NO: 1 (Table 8) (antisense TGCACAGTTTCTGGCAGGCC; MOE gapmer, wing and gap sizes not given here)
Day 64, escalating dose regimen
  MCH: 22 pg
Day 71, escalating dose regimen
  MCH: 23 pg
Day 78, escalating dose regimen
  MCH: 23 pg
Day 85, escalating dose regimen
  MCH: 22 pg
Day 8
  basophils: 0.2%
  eosinophils: 1.1%
  lymphocytes: 39%
  monocytes: 1.8%
  neutrophils: 57%
  platelet count: 548000 µL⁻¹
  reticulocytes: 1.2%
[1]
  MCH: 23 pg
  MCHC: 29 g/dL
  MCV: 79 fL
  RBC count: 5.5e+06 µL⁻¹
  WBC count: 13000 µL⁻¹
  basophils: 0.3%
  eosinophils: 0.5%
  hematocrit: 43%
  hemoglobin: 12.5 g/dL
  lymphocytes: 44%
  monocytes: 1.8%
  neutrophils: 53%
  platelet count: 401000 µL⁻¹
  reticulocytes: 1.1%
Day 8, escalating dose regimen
  MCH: 23 pg
  MCHC: 29 g/dL
  MCV: 80 fL
  RBC count: 5.4e+06 µL⁻¹
  WBC count: 10000 µL⁻¹
  hematocrit: 43%
  hemoglobin: 12.4 g/dL
Day 15
  basophils: 0.2%
  eosinophils: 1.0%
  lymphocytes: 38%
  monocytes: 2.0%
  neutrophils: 58%
  platelet count: 559000 µL⁻¹
  reticulocytes: 1.9%
[2]
  MCH: 23 pg
  MCHC: 30 g/dL
  MCV: 75 fL
  RBC count: 5.3e+06 µL⁻¹
  WBC count: 16000 µL⁻¹
  basophils: 0.2%
  eosinophils: 0.2%
  hematocrit: 40%
  hemoglobin: 12.2 g/dL
  lymphocytes: 24%
  monocytes: 1.5%
  neutrophils: 73%
  platelet count: 396000 µL⁻¹
  reticulocytes: 1.0%
[3]
  MCH: 23 pg
  MCHC: 30 g/dL
  MCV: 76 fL
  RBC count: 5.3e+06 µL⁻¹
  WBC count: 9000 µL⁻¹
  hematocrit: 40%
  hemoglobin: 12.1 g/dL
Day 22
  basophils: 0.2%
  eosinophils: 0.7%
  lymphocytes: 39%
  monocytes: 2.4%
  neutrophils: 57%
  platelet count: 466000 µL⁻¹
  reticulocytes: 1.9%
[4]
  MCH: 23 pg
  MCHC: 29 g/dL
  MCV: 79 fL
  RBC count: 5.1e+06 µL⁻¹
  WBC count: 15000 µL⁻¹
  basophils: 0.1%
  eosinophils: 0.5%
  hematocrit: 40%
  hemoglobin: 11.7 g/dL
  lymphocytes: 33%
  monocytes: 1.9%
  neutrophils: 64%
  platelet count: 347000 µL⁻¹
  reticulocytes: 1.0%
[5]
  MCH: 24 pg
  MCHC: 28 g/dL
  MCV: 83 fL
  RBC count: 5e+06 µL⁻¹
  WBC count: 10000 µL⁻¹
  hematocrit: 41%
  hemoglobin: 11.6 g/dL
Day 29
  basophils: 0.2%
  eosinophils: 1.2%
  lymphocytes: 43%
  monocytes: 2.7%
  neutrophils: 53%
  platelet count: 475000 µL⁻¹
  reticulocytes: 2.5%
[6]
  MCH: 23 pg
  MCHC: 28 g/dL
  MCV: 82 fL
  RBC count: 5.2e+06 µL⁻¹
  WBC count: 14000 µL⁻¹
  basophils: 0.3%
  eosinophils: 0.8%
  hematocrit: 42%
  hemoglobin: 12.0 g/dL
  lymphocytes: 53%
  monocytes: 2.7%
  neutrophils: 42%
  platelet count: 370000 µL⁻¹
  reticulocytes: 1.4%
[7]
  MCH: 23 pg
  MCHC: 28 g/dL
  MCV: 83 fL
  RBC count: 4.9e+06 µL⁻¹
  WBC count: 11000 µL⁻¹
  hematocrit: 41%
  hemoglobin: 11.5 g/dL
Day 36
  basophils: 0.3%
  eosinophils: 1.7%
  lymphocytes: 39%
  monocytes: 2.1%
  neutrophils: 57%
  platelet count: 505000 µL⁻¹
  reticulocytes: 2.2%
[8]
  MCH: 23 pg
  MCHC: 30 g/dL
  MCV: 76 fL
  RBC count: 5.3e+06 µL⁻¹
  WBC count: 16000 µL⁻¹
  basophils: 0.1%
  eosinophils: 0.4%
  hematocrit: 41%
  hemoglobin: 12.3 g/dL
  lymphocytes: 26%
  monocytes: 1.5%
  neutrophils: 72%
  platelet count: 379000 µL⁻¹
  reticulocytes: 1.3%
[9]
  MCH: 23 pg
  MCHC: 29 g/dL
  MCV: 80 fL
  RBC count: 5.3e+06 µL⁻¹
  WBC count: 10000 µL⁻¹
  hematocrit: 42%
  hemoglobin: 12.2 g/dL
Day 43
  basophils: 0.3%
  eosinophils: 1.2%
  lymphocytes: 45%
  monocytes: 2.6%
  neutrophils: 50%
  platelet count: 490000 µL⁻¹
  reticulocytes: 1.6%
[10]
  MCH: 23 pg
  MCHC: 30 g/dL
  MCV: 77 fL
  RBC count: 5.2e+06 µL⁻¹
  WBC count: 15000 µL⁻¹
  basophils: 0.2%
  eosinophils: 0.4%
  hematocrit: 40%
  hemoglobin: 11.8 g/dL
  lymphocytes: 36%
  monocytes: 1.8%
  neutrophils: 61%
  platelet count: 391000 µL⁻¹
  reticulocytes: 1.0%
[11]
  MCH: 23 pg
  MCHC: 29 g/dL
  MCV: 79 fL
  RBC count: 5.2e+06 µL⁻¹
  WBC count: 9000 µL⁻¹
  hematocrit: 40%
  hemoglobin: 11.8 g/dL
Day 50
  basophils: 0.3%
  eosinophils: 1.2%
  lymphocytes: 49%
  monocytes: 3.7%
  neutrophils: 45%
  platelet count: 487000 µL⁻¹
  reticulocytes: 2.7%
[12]
  MCH: 23 pg
  MCHC: 29 g/dL
  MCV: 80 fL
  RBC count: 5.3e+06 µL⁻¹
  WBC count: 15000 µL⁻¹
  basophils: 0.2%
  eosinophils: 0.3%
  hematocrit: 42%
  hemoglobin: 11.9 g/dL
  lymphocytes: 35%
  monocytes: 1.8%
  neutrophils: 62%
  platelet count: 351000 µL⁻¹
  reticulocytes: 1.2%
[13]
  MCH: 23 pg
  MCHC: 28 g/dL
  MCV: 83 fL
  RBC count: 5.2e+06 µL⁻¹
  WBC count: 11000 µL⁻¹
  hematocrit: 42%
  hemoglobin: 11.8 g/dL
Day 57
  basophils: 0.4%
  eosinophils: 1.0%
  lymphocytes: 45%
  monocytes: n.d.3.2%
  neutrophils: 49%
  platelet count: 528000 µL⁻¹
  reticulocytes: 2.0%
[14]
  MCH: 23 pg
  MCHC: 29 g/dL
  MCV: 80 fL
  RBC count: 5.2e+06 µL⁻¹
  WBC count: 11000 µL⁻¹
  hematocrit: 42%
  hemoglobin: 12.1 g/dL
Day 64
  basophils: 0.4%
  eosinophils: 1.3%
  lymphocytes: 53%
  monocytes: n.d.3.5%
  neutrophils: 41%
  platelet count: 496000 µL⁻¹
  reticulocytes: 1.7%
[15]
  MCHC: 29 g/dL
  MCV: 79 fL
  RBC count: 5.4e+06 µL⁻¹
  WBC count: 11000 µL⁻¹
  hematocrit: 43%
  hemoglobin: 12.3 g/dL
Day 71
  basophils: 0.3%
  eosinophils: 1.8%
  lymphocytes: 61%
  monocytes: n.d.4.7%
  neutrophils: 27%
  platelet count: 465000 µL⁻¹
  reticulocytes: 1.8%
[16]
  MCHC: 28 g/dL
  MCV: 80 fL
  RBC count: 5.4e+06 µL⁻¹
  WBC count: 15000 µL⁻¹
  hematocrit: 43%
  hemoglobin: 12.3 g/dL
Day 78
  basophils: 0.3%
  eosinophils: 1.0%
  lymphocytes: 51%
  monocytes: n.d.4.5%
  neutrophils: 42%
  platelet count: 449000 µL⁻¹
  reticulocytes: 1.8%
[17]
  MCHC: 29 g/dL
  MCV: 79 fL
  RBC count: 5.3e+06 µL⁻¹
  WBC count: 12000 µL⁻¹
  hematocrit: 41%
  hemoglobin: 12.2 g/dL
Day 85
  basophils: 0.3%
  eosinophils: 1.2%
  lymphocytes: 34%
  monocytes: n.d.3.5%
  neutrophils: 60%
  platelet count: 458000 µL⁻¹
  reticulocytes: 2.3%
[18]
  MCHC: 30 g/dL
  MCV: 77 fL
  RBC count: 5.5e+06 µL⁻¹
  WBC count: 15000 µL⁻¹
  hematocrit: 42%
  hemoglobin: 12.7 g/dL
Day −5
  basophils: 0.2%
  eosinophils: 1.6%
  lymphocytes: 43%
  monocytes: 2.8%
  neutrophils: 52%
  platelet count: 573000 µL⁻¹
  reticulocytes: 1.2%
[19]
  MCH: 23 pg
  MCHC: 30 g/dL
  MCV: 78 fL
  RBC count: 5.5e+06 µL⁻¹
  WBC count: 15000 µL⁻¹
  basophils: 0.3%
  eosinophils: 0.7%
  hematocrit: 43%
  hemoglobin: 12.8 g/dL
  lymphocytes: 43%
  monocytes: 2.4%
  neutrophils: 53%
  platelet count: 434000 µL⁻¹
  reticulocytes: 0.8%
[20]
  MCH: 23 pg
  MCHC: 30 g/dL
  MCV: 77 fL
  RBC count: 5.5e+06 µL⁻¹
  WBC count: 13000 µL⁻¹
  hematocrit: 43%
  hemoglobin: 12.7 g/dL
Day −14
  basophils: 0.2%
  eosinophils: 1.0%
  lymphocytes: 47%
  monocytes: 2.3%
  neutrophils: 49%
  platelet count: 528000 µL⁻¹
  reticulocytes: 1.7%
[21]
  MCH: 24 pg
  MCHC: 29 g/dL
  MCV: 81 fL
  RBC count: 5.5e+06 µL⁻¹
  WBC count: 15000 µL⁻¹
  basophils: 0.2%
  eosinophils: 0.5%
  hematocrit: 44%
  hemoglobin: 12.8 g/dL
  lymphocytes: 47%
  monocytes: 2.9%
  neutrophils: 48%
  platelet count: 387000 µL⁻¹
  reticulocytes: 1.1%
[22]
  MCH: 23 pg
  MCHC: 30 g/dL
  MCV: 78 fL
  RBC count: 5.3e+06 µL⁻¹
  WBC count: 13000 µL⁻¹
  hematocrit: 41%
  hemoglobin: 12.4 g/dL
